In patent US11291674B2 (CALITHERA BIOSCIENCES, INC., priority 2016, dated 2022):
Entries after “also recorded” stand apart in the source; their conditions may differ.

Key:
[1] = test system: G-MDSC-mediated suppression of T cell proliferation; test: T cell proliferation in media conditioned by G-MDSC of a lung cancer patient; assay type: cell-based, human
Protocol: T cell/myeloid cell co-culture assays. […] Granulocytes were incubated for 48 h at 37° C., during which time they spontaneously activate as determined by surface expression of CD66b and scatter properties. T cells isolated from the same donor using a pan-T cell isolation kit (Stemcell Technologies) were loaded with CFSE and plated with immobilized anti-CD3 and soluble anti-CD28 in the presence of the aged granulocytes. The cells were co-cultured at several ratios of granulocytes to T cells as indicated or at a fixed ratio of 4 T cells to 1 granulocyte. Co-cultures were incubated for 3-4 days, at which time media were analyzed for L-arginine and L-ornithine by mass spectrometry and T cell proliferation was determined by flow cytometry. Granulocytic MDSC (G-MDSC) or granulocytes from cancer patients were isolated from whole blood purchased from Conversant Biologics. G-MDSCs were purified from the PBMC layer of a Ficoll gradient by positive selection for CD66b^+ cells. Granulocytes were purified from the RBC layer of a Ficoll gradient using Hetasep (Stemcell Technologies). […] Cytokines were quantified in the media from T cell co-culture assays using the Cytometric Bead Array kit according to the manufacturer's instructions (BD Biosciences).

B16 tumors = test: B16 syngeneic tumor model; assay type: in vivo
Excerpt: (§1) Murine tumor studies. Female wild-type C57BL/6 and Balb/c mice (5-6 weeks old) were purchased from Charles River Laboratories (Hollister, Calif.). Severe combined immune deficient (SCID, B6.CB17-PrkdcSCID/SzJ) and Pmel-1 TCR transgenic (B6.Cg-Thyla/Cy Tg(TcraTcrb)8Rest/J) mice (5-6 weeks old) were purchased from The Jackson Laboratory (Bar Harbor, Me.). All mice were housed and treated in accordance with Institutional Animal Care and Use Committee guidelines. For the 4T1 tumor model, 1×10^5 cells were injected orthotopically into the mammary fat pad; for all other tumor models, 1×10^6 cells were injected subcutaneously (s.c.) in the right flank. […] Control groups received vehicle (water) twice daily by gavage. Tumor volume measured by digital caliper (length×width×width/2) and body weight were recorded three times weekly. Animals were euthanized when tumors necrotized or volumes reached 2000 mm^3. Anti-PD-L1 antibody (5 mg/kg, clone 10F.9G2, BioXCell, West Lebanon, N.H.) was injected intraperitoneally (i.p.) on days 5, 7, 9, 11, 13, and 15 for the CT26 model. Gemcitabine (Selleckchem, Houston, Tex.) was dosed 50 mg/kg i.p. on days 10 and 16 for the CT26 model or 60 mg/kg i.p. on days 6 and 10 for the LLC model. For CD8^+ cell depletion, mice were injected i.p. with anti-CD8 antibody (25 mg/kg, clone 2.43, BioXCell) on days −1, 0, +5, and +10. For NK cell depletion, mice were injected i.p. with anti-NK1.1 antibody (25 mg/kg, clone PK136, BioXCell) in the LLC and B16 models or with anti-Asialo GM1 sera (20 μL, Wako Chemicals, Richmond, Va.) in the CT26 model, per the same schedule as anti-CD8.
Tumor dissociation and flow cytometry. […] All tumor flow experiments were acquired on an Attune N×T flow cytometer and analyzed with FlowJo software version 10 (Ashland, Oreg.), using fluorescence-minus-one controls for gating and single-stained OneComp eBeads (eBioscience) to set compensation matrices.

LLC tumors [2] = test: LLC syngeneic tumor model; assay type: in vivo, mouse
Excerpt: as §1
(§2) Tumor dissociation and flow cytometry. […] Excised tumors were placed in RPMI-1640 containing 5% FBS on ice, minced with a razor blade, and dissociated in RPMI-1640 supplemented with mouse tumor dissociation enzymes (Miltenyi Biotec, Bergisch Gladbach, Germany) on a GentleMACS Octo Dissociator With Heat (Miltenyi Biotec) according to the manufacturer's instructions. Dissociated tumors were strained through 70 μm nylon mesh, washed with cold PBS containing 2% FBS, blocked with anti-CD16/CD32 (Fc block antibody, eBioscience), and stained for cell surface antigens. For B16 and 4T1 tumors, washed dissociated tumor cells were incubated with Dead Cell Removal MicroBeads (Miltenyi Biotec) and applied to a magnetic column prior to staining. For intracellular staining, cells were fixed and permeabilized using buffers purchased from R&D Systems or eBioscience for cytoplasmic or nuclear antigens, respectively. All tumor flow experiments were acquired on an Attune N×T flow cytometer and analyzed with FlowJo software version 10 (Ashland, Oreg.), using fluorescence-minus-one controls for gating and single-stained OneComp eBeads (eBioscience) to set compensation matrices.
Gene expression analysis. […] RNA was extracted for gene expression analysis and transcripts were quantified by NanoString Technologies (Seattle, Wash.).
Cytokine analysis. […] Tumors were homogenized in 50 mM Tris-HCl buffer containing 2 mM EDTA, pH 7.4 and protease inhibitors. The homogenate was centrifuged and the supernatant was collected and re-frozen. Cytokines in the supernatant were quantified by Myriad Rules Based Medicine (Austin, Tex.).

LLC tumors [3] = test: LLC tumors in mice with conditional Arg1 deletion in the myeloid lineage; assay type: in vivo, mouse; conditions: 100 mg/kg every 12 h for 14 days
Excerpt: Conditional Arg1 deleted mice. Arg1 floxed mice were crossed to the Tie2-Cre deleter strain (The Jackson Laboratory) as previously described. Experimental mice were generated from crossing Arg1^Flox/Flox; Tie2-Cre^+ males with Arg1^Flox/Flox; Tie2-Cre^+ females, with Cre negative littermates serving as wild-type controls. Mice were housed and used in accordance with protocols approved by the Institutional Animal Care and Use Committee at St. Jude Children's Research Hospital. LLC cells (1×10^6 per mouse) were injected s.c. in the flank region. […] Mice were euthanized, and tumors excised and weights recorded. Myeloid deletion of Arg1 was confirmed via western blotting of IL-4-stimulated bone marrow-derived macrophages for all animals.

CT26 tumors = assay type: in vivo
Excerpt: as §1, §2

B16 cell line = test: Cytotoxicity assay (CellTiterGlo), B16; assay type: cell-based, murine; conditions: 1 mM arginase inhibitor, 72 h
Protocol: Cytotoxicity assays. […] Cytotoxicity was assayed by the addition of CellTiterGlo reagent according to the manufacturer's instructions (Promega, Madison, Wis.) followed by […] quantification on a Molecular Devices plate reader (Sunnyvale, Calif.).

[4] = Tolerability and body weight in mice; assay type: in vivo
Excerpt: as §1, with “For NK cell depletion, mice were injected i.p. with anti-NK1.1 antibody (25 mg/kg, clone PK136, BioXCell) in the LLC and B16 models or with anti-Asialo GM1 sera (20 μL, Wako Chemicals, Richmond, Va.) in the CT26 model, per the same schedule as anti-CD8.” left out

[5] = 100 mg/kg twice daily, depleting antibodies
[6] = 100 mg/kg BID, study day 14, flow cytometry

SMILES: C[C@H](N)C(=O)N1C[C@H](CCCB(O)O)[C@](N)(C(=O)O)C1 [arginase inhibitor]
- Arginine depletion of the media ([1]; G-MDSC of a lung cancer patient): arginine depletion was blocked
- T cell proliferation restored, of control levels ([1]; media conditioned by G-MDSC of a lung cancer patient): 99%
- Tumor growth, single agent (B16 tumors; 100 mg/kg BID PO): significantly inhibited the growth
- Tumor-infiltrating activated CD25+ CD8+ cytotoxic T cells vs vehicle (B16 tumors; 100 mg/kg BID, study day 9, flow cytometry): increase
- Efficacy after depletion of either CD8+ cells or NK cells (B16 tumors; [5]): blocked the efficacy
- Tumor growth, single agent (LLC tumors [2]; 100 mg/kg BID PO): significantly inhibited the growth
- Transcripts of interferon-responsive genes in tumors vs vehicle (LLC tumors [2]; 100 mg/kg BID, Nanostring): increases
- CD8+ T cells in the tumor vs vehicle (LLC tumors [2]; [6]): increase
- CD68+ macrophages in the tumor vs vehicle (LLC tumors [2]; [6]): decrease
- Effect of depletion of CD8+ cells on efficacy (LLC tumors [2]; 100 mg/kg twice daily, anti-CD8): smaller effect
- Efficacy after depletion of NK cells (LLC tumors [2]; 100 mg/kg twice daily, anti-NK1.1): loss of efficacy
- Inflammatory cytokines in tumors vs vehicle (LLC tumors [2]; 200 mg/kg BID, Luminex): increases
- Tumor growth inhibition, combination with gemcitabine (LLC tumors [2]; gemcitabine 60 mg/kg i.p. days 6 and 10): significant increase in tumor growth inhibition
- Tumor growth in Arg flox/flox; Tie2-Cre+ (ARG1 ΔM) animals (LLC tumors [3]): no further reduction in tumor growth
- Tumor growth, single agent (CT26 tumors; 100 mg/kg BID PO): significantly inhibited the growth; also recorded: reduced
- Tumor-infiltrating activated CD25+ CD8+ cytotoxic T cells vs vehicle (CT26 tumors; [6]): increase
- Efficacy after depletion of either CD8+ cells or NK cells (CT26 tumors; [5]): blocked the efficacy
- Tumor growth inhibition, combination with anti-PD-L1 (CT26 tumors; arginase inhibitor 100 mg/kg BID plus anti-PD-L1 5 mg/kg i.p., vs monotherapies): enhanced
- Survival at study day 46, combination with anti-PD-L1 (CT26 tumors; arginase inhibitor plus anti-PD-L1): 90%
- Complete responses, combination with anti-PD-L1 (CT26 tumors; arginase inhibitor plus anti-PD-L1, N=10 per group): six
- Tumor growth inhibition, combination with gemcitabine (CT26 tumors; gemcitabine 50 mg/kg i.p. days 10 and 16): significant increase in tumor growth inhibition
- Growth inhibition of B16 cell line (B16 cell line): No growth inhibition
- Tolerability ([4]; 100 mg/kg twice daily for 23 days, no significant clinical observations or impact on body weight): well-tolerated
- Duration for which twice-daily oral dosing was well-tolerated ([4]; mice): at least 40 days
